What was measured:
windgrass [1] = assay: Test Example 5: herbicidal effect by foliage application, plastic box (Table 20, symbol L); type: in vivo, windgrass (Apera spica-venti); conditions: foliage application, 320 g/ha, three weeks after application
Summary of the method: (§1)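 Plants sown in sterilized diluvial soil and grown 14 days in a greenhouse at 25° C to 30° C, then sprayed on the foliage with the compound's emulsion diluted in water to a predetermined herbicide amount. Injury to weeds and crops scored three weeks after application on a visual rating scale.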

windgrass [2] = assay: Test Example 4: herbicidal effect by soil treatment (Table 19, symbol L); type: in vivo, windgrass (Apera spica-venti); conditions: amount of applied herbicide 320 g/ha
Summary of the method: (§2)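 Seeds were sown in sterilized diluvial soil and covered with about 1.5 cm of soil. An emulsion formulation diluted with water to a predetermined herbicide amount was sprayed evenly onto the soil surface. Plants grew in a greenhouse at 25° C. to 30° C., and the effect was scored three weeks after application using criteria from an earlier test.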

redroot pigweed = assay: Test Example 4: herbicidal effect by soil treatment (Table 19, symbol N); type: in vivo, redroot pigweed (Amaranthus retroflexus); conditions: amount of applied herbicide 320 g/ha
Summary of the method: as §2

late watergrass [3] = assay: Test Example 2: herbicidal activity, application during weed generation under submerged conditions (Table 17, symbol A); type: in vivo, late watergrass (Echinochloa oryzicola); conditions: AAH 320 g/ha; application during weed generation, submerged conditions
Summary of the method: (§3)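 3-wk visual-criteria score after one water-surface dose. Emulsion formulation, water-diluted to set rate; applied at 1–2 leaf stage; alluvial soil, 4 cm standing water; seeds co-sown; greenhouse 25–30° C.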

barnyard grass [4] = assay: Test Example 5: herbicidal effect by foliage application, plastic box (Table 20, symbol H); type: in vivo, barnyard grass (Echinochloa crus-galli); conditions: foliage application, 320 g/ha, three weeks after application
Summary of the method: as §1

velvetleaf [5] = assay: Test Example 4: herbicidal effect by soil treatment (Table 19, symbol M); type: in vivo, velvetleaf (Abutilon theophrasti); conditions: amount of applied herbicide 320 g/ha
Summary of the method: as §2

wild oat = assay: Test Example 5: herbicidal effect by foliage application, plastic box (Table 20, symbol I); type: in vivo, wild oat (Avena fatua); conditions: foliage application, 320 g/ha, three weeks after application
Summary of the method: as §1

green foxtail [6] = assay: Test Example 4: herbicidal effect by soil treatment (Table 19, symbol G); type: in vivo, green foxtail (Setaria viridis); conditions: amount of applied herbicide 320 g/ha
Summary of the method: as §2

velvetleaf [7] = assay: Test Example 5: herbicidal effect by foliage application, plastic box (Table 20, symbol M); type: in vivo, velvetleaf (Abutilon theophrasti); conditions: foliage application, 320 g/ha, three weeks after application
Summary of the method: as §1

Chinese sprangletop = assay: Test Example 3: herbicidal effect by foliage application, Wagner pot (Table 18, symbol D); type: in vivo, chinese sprangletop (Leptochloa chinensis); conditions: amount of applied herbicide 320 g/ha
Summary of the method: (§4)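 Plants were sown in alluvial soil held under 0.1–0.5 cm standing water and grown 14 days in a greenhouse at 25–30 °C. An emulsifiable formulation, water-diluted to the set dose, was then sprayed onto the foliage, and effects were scored three weeks later using previously defined criteria.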

green foxtail [8] = assay: Test Example 5: herbicidal effect by foliage application, plastic box (Table 20, symbol G); type: in vivo, green foxtail (Setaria viridis); conditions: foliage application, 320 g/ha, three weeks after application
Summary of the method: as §1

oval-leafed pondweed = assay: Test Example 2: herbicidal activity, application during weed generation under submerged conditions (Table 17, symbol C); type: in vivo, oval-leafed pondweed (Monochoria vaginalis); conditions: AAH 320 g/ha; application during weed generation, submerged conditions
Summary of the method: as §3

lambsquarters = assay: Test Example 5: herbicidal effect by foliage application, plastic box (Table 20, symbol O); type: in vivo, lambsquarters (Chenopodium album); conditions: foliage application, 320 g/ha, three weeks after application
Summary of the method: as §1

late watergrass [9] = assay: Test Example 1: herbicidal activity, application before weed generation under submerged conditions (Table 16, symbol A); type: in vivo, late watergrass (Echinochloa oryzicola); conditions: amount of applied herbicide 320 g/ha
Summary of the method: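 Alluvial soil was flooded to 4 cm depth, weed seeds were sown mixed and 2.5-leaf rice seedlings were transplanted. On sowing day, the compound's emulsion, diluted in water to a set dose, was applied to the water surface. Plants grew at 25–30 °C and were scored 0–5 after three weeks.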

barnyard grass [10] = assay: Test Example 3: herbicidal effect by foliage application, Wagner pot (Table 18, symbol H); type: in vivo, barnyard grass (Echinochloa crus-galli); conditions: amount of applied herbicide 320 g/ha
Summary of the method: as §4

Row | SMILES | herbicidal effect on windgrass (L) (windgrass [1]) | L: windgrass, herbicidal effect grade (windgrass [2]) | N: redroot pigweed, herbicidal effect grade (redroot pigweed) | herbicidal effect rating, A: late watergrass (late watergrass [3]) | herbicidal effect on barnyard grass (H) (barnyard grass [4]) | M: velvetleaf, herbicidal effect grade (velvetleaf [5]) | herbicidal effect on wild oat (I) (wild oat) | G: green foxtail, herbicidal effect grade (green foxtail [6]) | herbicidal effect on velvetleaf (M) (velvetleaf [7]) | Herbicidal effect on D (Chinese sprangletop), foliage application (Chinese sprangletop) | herbicidal effect on green foxtail (G) (green foxtail [8]) | herbicidal effect rating, C: oval-leafed pondweed (oval-leafed pondweed) | herbicidal effect on lambsquarters (O) (lambsquarters) | Herbicidal effect, A: late watergrass (late watergrass [9]) | Herbicidal effect on H (barnyard grass), foliage application (barnyard grass [10])
1 | CCOc1ccc2c(-c3c(O)c(C)nn(C)c3=O)c(-c3ccccc3OC)sc2c1Cl [7-003] | 3 (Herbicidal rate of 40% or more and less than 70%) | 0 (Herbicidal rate of 5% or less (almost no effect)) | 5 (Herbicidal rate of 90% or more (almost completely withered)) | 0 (Herbicidal rate of 5% or less (almost no effect)) | 2 (Herbicidal rate of 20% or more and less than 40%) | 3 (Herbicidal rate of 40% or more and less than 70%) | 0 (Herbicidal rate of 5% or less (almost no effect)) | 0 (Herbicidal rate of 5% or less (almost no effect)) | 5 (Herbicidal rate of 90% or more (almost completely withered)) | 3 (Herbicidal rate of 40% or more and less than 70%) | 4 (Herbicidal rate of 70% or more and less than 90%) | 0 (Herbicidal rate of 5% or less (almost no effect)) | 5 (Herbicidal rate of 90% or more (almost completely withered)) | 2 (Herbicidal rate of 20% or more and less than 40%) | 4 (Herbicidal rate of 70% or more and less than 90%)
2 | CCOc1ccccc1-c1sc2c(Cl)c(OCC)ccc2c1-c1c(O)c(C)nn(C)c1=O [7-004] | 0 (Herbicidal rate of 5% or less (almost no effect)) | 0 (Herbicidal rate of 5% or less (almost no effect)) | 4 (Herbicidal rate of 70% or more and less than 90%) | 3 (Herbicidal rate of 40% or more and less than 70%) | 5 (Herbicidal rate of 90% or more (almost completely withered)) | 3 (Herbicidal rate of 40% or more and less than 70%) | 0 (Herbicidal rate of 5% or less (almost no effect)) | 5 (Herbicidal rate of 90% or more (almost completely withered)) | 4 (Herbicidal rate of 70% or more and less than 90%) | 5 (Herbicidal rate of 90% or more (almost completely withered)) | 5 (Herbicidal rate of 90% or more (almost completely withered)) | 2 (Herbicidal rate of 20% or more and less than 40%) | 4 (Herbicidal rate of 70% or more and less than 90%) | 3 (Herbicidal rate of 40% or more and less than 70%) | 5 (Herbicidal rate of 90% or more (almost completely withered))
3 | Cc1nn(C)c(=O)c(-c2c(-c3ccc(OCC(F)(F)F)cc3)oc3ccccc23)c1O [8-005] | 3 (Herbicidal rate of 40% or more and less than 70%) | 0 (Herbicidal rate of 5% or less (almost no effect)) | 5 (Herbicidal rate of 90% or more (almost completely withered)) | 4 (Herbicidal rate of 70% or more and less than 90%) | 5 (Herbicidal rate of 90% or more (almost completely withered)) | 3 (Herbicidal rate of 40% or more and less than 70%) | 0 (Herbicidal rate of 5% or less (almost no effect)) | 4 (Herbicidal rate of 70% or more and less than 90%) | 5 (Herbicidal rate of 90% or more (almost completely withered)) | 4 (Herbicidal rate of 70% or more and less than 90%) | 5 (Herbicidal rate of 90% or more (almost completely withered)) | 3 (Herbicidal rate of 40% or more and less than 70%) | 5 (Herbicidal rate of 90% or more (almost completely withered)) | 5 (Herbicidal rate of 90% or more (almost completely withered)) | 5 (Herbicidal rate of 90% or more (almost completely withered))
4 | CSCCOc1ccc(-c2oc3ccccc3c2-c2c(O)c(C)nn(C)c2=O)cc1 [8-008] | 4 (Herbicidal rate of 70% or more and less than 90%) | 0 (Herbicidal rate of 5% or less (almost no effect)) | 4 (Herbicidal rate of 70% or more and less than 90%) | 2 (Herbicidal rate of 20% or more and less than 40%) | 5 (Herbicidal rate of 90% or more (almost completely withered)) | 2 (Herbicidal rate of 20% or more and less than 40%) | 5 (Herbicidal rate of 90% or more (almost completely withered)) | 1 (Herbicidal rate of 5% or more and less than 20%) | 5 (Herbicidal rate of 90% or more (almost completely withered)) | 4 (Herbicidal rate of 70% or more and less than 90%) | 5 (Herbicidal rate of 90% or more (almost completely withered)) | 2 (Herbicidal rate of 20% or more and less than 40%) | 3 (Herbicidal rate of 40% or more and less than 70%) | 5 (Herbicidal rate of 90% or more (almost completely withered)) | 5 (Herbicidal rate of 90% or more (almost completely withered))
